Patent US9393219B2, “Monophenols and benzenediols sensitization of immune system against haptenized melanoma antigens” (ACADEMISCH ZIEKENHUIS BIJ DE UNIVERSITEIT VAN AMSTERDAM, priority 2005, dated 2016)
Like-named read-outs stand apart in the source and are kept apart here.

Tests used:
melanoma = conditions: cited from earlier work; for toxicity of intra arterial infusion: intra arterial infusions in the lower limbs, high doses; for efficacy as chemotherapeutic in melanoma: metastatic/disseminated melanoma, intra arterial infusion of high doses
skin = conditions: cases in workers of polymer or leather industries; cited from earlier work
[1] = test system: skin of vitiligo patients; test: histology of skin of vitiligo patients undergoing depigmentation therapy; type: in vivo, human
Text: (§1) No reaction occurs in depigmented skin. This entails that the inflammatory reaction is directed towards something, what is only present in melanocytes, e.g. tyrosinase, TRP1 and/or TRP2. However, auto-antibodies to tyrosinase, TRP1 and TRP2 have been reported to occur at low frequencies, or not at all, in vitiligo patients (37,38,39,40,41).

[2] = test system: melanocytes and keratinocytes; test: in vitro toxic effects on melanocytes and keratinocytes; type: cell-based
Text: as §1

[3] = test system: pigmented skin / depigmented skin; test: in vivo inflammatory response of pigmented and depigmented skin; set-up: species or system human
Text: as §1

metastatic melanoma = conditions: immunotherapy; cited from earlier work

COc1ccc(O)cc1 [4-HA, 4-hydroxyanisole]
toxicity of intra arterial infusion (melanoma): serious renal and hepatic toxicity
toxicity of intra arterial infusion (melanoma; listed as 4-Hydroxyanisole): severe toxic events
efficacy as chemotherapeutic in melanoma (melanoma): without success
efficacy as chemotherapeutic in melanoma (melanoma; listed as 4-Hydroxyanisole): not effective

Oc1ccc(OCc2ccccc2)cc1 [Monobenzone, p-(benzyloxy)phenol]
depigmentation on exposure of the skin (skin): causes leukoderma and can induce vitiligo-like depigmentation
histology of skin: infiltrate [1]: dense infiltrate consisting of mainly CD8^+ cells and macrophages
granulocytes in the skin infiltrate ([1]; granulocytes would indicate a toxic (orthoergic) reaction): no granulocytes
sensitivity of melanocytes and keratinocytes to the toxic effects [2]: equally sensitive
inflammatory reaction ([3]; depigmented skin): No reaction
inflammatory response with erythema, edema and scaliness ([3]; pigmented skin): only seen in the pigmented skin

CC(C)(C)c1ccc(O)c(O)c1 [TBC, 4-tert-butylcatechol]
depigmentation on exposure of the skin (skin): causes leukoderma and can induce vitiligo-like depigmentation

B1: interferon (IFNγ): interferon (IFNγ) used as immunotherapy for metastatic melanoma (protein, UniProt P01579 24-161, looked up)
Interferon gamma: QDPYVKEAENLKKYFNAGHSDVADNGTLFLGILKNWKEESDRKIMQSQIVSFYFKLFKNFKDDQSIQKSVETIKEDMNVKFFNSNKKKRDDFEKLTNYSVTDLNVQRKAIHELIQVMAELSPAAKTGKRKRSQMLFRG
response rate (metastatic melanoma): approximately 15%
